Experimental data as given in PubChem BioAssay (NCI).
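A five-concentration, 48-hour dose response in 96-well plates underlies each endpoint, interpolated linearly between surrounding concentrations. TGI: concentration producing complete growth inhibition.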

Key:
Assay in all cases: NCI tumour cell line growth inhibition, 48 h
ACHN renal = test system: ACHN renal
HCT-15 colon = test system: HCT-15 colon
HS 578T breast = test system: HS 578T breast
K-562 leukemia = test system: K-562 leukemia
LOX IMVI melanoma = test system: LOX IMVI melanoma
MDA-N = test system: MDA-N
SR leukemia = test system: SR leukemia
UO-31 renal = test system: UO-31 renal
OVCAR-8 ovarian = test system: OVCAR-8 ovarian
SNB-75 CNS = test system: SNB-75 CNS

Row | Structure (SMILES) | TGI (ACHN renal) [µM] | TGI (HCT-15 colon) [µM] | TGI (HS 578T breast) [µM] | TGI (K-562 leukemia) [µM] | TGI (LOX IMVI melanoma) [µM] | TGI (MDA-N) [µM] | TGI (SR leukemia) [µM] | TGI (UO-31 renal) [µM] | TGI (OVCAR-8 ovarian) [µM] | TGI (SNB-75 CNS) [µM]
1 | CSc1nc(=S)[nH]c2c1c(C)nn2-c1ccccc1 | 57.5 | > 100 | > 100 | 51.9 | > 100 | > 100 | 42.8 | 69.8 |  | 
2 | COC(=O)C1CC2C=CC=CC(=O)C2(C)C1 (centres undefined) | > 100 | > 100 |  | > 100 | > 100 |  | 76.5 | > 100 | > 100 | 
3 | COc1ccc(C2=Nc3c(nc(OC)[nH]c3=O)NC(c3ccccc3)C2)cc1 (centres undefined) | 83.5 |  |  | 73.1 | 70.3 | 64.5 | > 100 | > 100 | 54.4 | 58.5
4 | CC(=O)Nc1[nH]n(C)c(=O)c1-c1nnc(C)s1 | > 100 | > 100 |  | > 100 | > 100 |  | > 100 | > 100 | > 100 | > 100
5 | Brc1ccc(C2C3CSc4ccccc4C3=NN2c2ccccc2)cc1 (centres undefined) |  | > 100 | > 100 | > 100 | > 100 | > 100 | > 100 | > 100 | > 100 | > 100
6 | O=C1CCN2c3ccccc3[C@H]3Cc4cccc(c4[C@@H]2C3)CCO1 | > 100 | > 100 |  | 80.7 | > 100 | 80.3 | 74.6 | 76.4 | > 100 | 96.7
7 | COc1ccc(N2C(=O)c3c(c4[nH]c5ccccc5c4c4ccc(C(C)(C)C)cc34)C2=O)cc1 | > 100 | > 100 |  | > 100 | > 100 |  | 57.2 | > 100 | 63.6 | 35.4
8 | CC(C)Oc1c(C2(c3ccccc3)SCCCS2)c(=O)c1=O | > 100 | > 100 | > 100 |  | > 100 | > 100 |  | > 100 | > 100 | > 100
9 | C1CNOCCCONCCCNOCCCONC1 | > 100 | > 100 | > 100 | > 100 | > 100 | > 100 |  | > 100 | > 100 | > 100
10 | COc1ccc(Nc2nc3ccccc3n3cccc23)cc1OC | 69.7 | 31.6 | > 100 | > 100 | 27.4 | 29.4 | 37.7 | 39.2 | 29.5 | 
11 | CC1(C)C2CCC3CC(CCC#N)CCC3C21C#N (centres undefined) | > 100 | > 100 | > 100 | > 100 | > 100 | > 100 | > 100 | > 100 | > 100 | 
12 | O=Cc1c[nH]c2c(=O)[nH]cnc12 | > 100 | > 100 |  | > 100 | > 100 |  | > 100 | > 100 | > 100 | > 100
13 | C#CC[C@@H]1C(=O)N(Cc2ccc(OC)cc2)[C@@H](C(C)C)C(=O)N1Cc1ccc(OC)cc1 | > 100 | > 100 | > 100 | > 100 | > 100 | 67.1 |  | > 100 | > 100 | 95
14 | CO/C(N)=C(\C#N)N=Cc1ccc2ccccc2c1 | > 100 |  | > 100 | 94.6 | > 100 | > 100 | > 100 | > 100 | > 100 | > 100
15 | CC(C)(C)N=CN1C=Cc2nc3ccccc3cc2C1 | > 100 | > 100 |  | > 100 | 73.8 |  | > 100 | > 100 | > 100 | > 100
16 | CC(C)[C@@H]1CC[C@@H](C)C[C@H]1OC(=O)c1c2n(c3ccccc13)C[C@H]1OC(C)(C)O[C@@H]21 | > 100 | > 100 | 51.9 | > 100 | > 100 | > 100 | 24.1 | > 100 | > 100 | 
17 | CCCCCCCC/C=C1\CCC(CN(C)C)C1=O (centres undefined) | 18.7 | 7.5 |  | 7.2 | 4.09 |  | 13.1 | 25.2 | 9.67 | 14.1
18 | CCN(CC)CCCNc1c2c(Cl)cc(Cl)cc2nc2nc(=O)[nH]c(C)c12 | > 100 | > 100 | > 100 | > 100 | 48.5 | 37.7 | > 10 | > 100 | > 10 | 
19 | Cn1c(=O)c2[nH]c(N=O)nc2n(C)c1=O |  | > 100 | > 100 | > 100 | > 100 | > 100 |  | > 100 | > 100 | > 100
20 | CC(C)(C)OC(=O)NC1CCCC1C(=O)C1=CCCC1 (centres undefined) | > 100 | > 100 | > 100 | > 100 | > 100 | > 100 | > 100 |  | > 100 | > 100
21 | CCOC(=O)c1c2ccc(/C=C/c3ccccn3)ccc-2c(C(=O)OCC)c1N | > 100 | > 100 |  | > 100 | > 100 |  |  | > 100 |  | > 100
22 | Nc1nc(NNc2cccc(F)c2)cc(=O)[nH]1 | > 100 | > 100 | > 100 | 74 | 43.2 |  | > 100 | > 100 | > 100 | 
23 | CN(C)CCN(C)P12(Oc3ccccc3O1)Oc1c(Cl)c(Cl)c(Cl)c(Cl)c1O2 | > 100 | > 100 |  | > 100 | > 100 | > 100 | > 100 | > 100 | > 100 | 82
24 | CCOC1OC(CO)C(O)CC1n1ccc(=O)[nH]c1=O (centres undefined) | > 100 | > 100 | > 100 | > 100 | > 100 | > 100 |  | > 100 | > 100 | > 100
25 | COc1ccc(/C=c2\c(=O)[nH]c3nc4ccccc4c(=O)n23)cc1 | > 100 | > 100 | > 100 |  | > 100 |  | > 100 | > 100 | > 100 | > 100
